The source of these data is patent US6255497A, “Method for the inhibition of ALDH-I useful in the treatment of alcohol dependence or alcohol abuse” (priority 1998, dated 2001).

Data set [1] deals with T1, ALDH-I (Homo sapiens, UniProt P05091).
T1 sequence (P05091 18-517): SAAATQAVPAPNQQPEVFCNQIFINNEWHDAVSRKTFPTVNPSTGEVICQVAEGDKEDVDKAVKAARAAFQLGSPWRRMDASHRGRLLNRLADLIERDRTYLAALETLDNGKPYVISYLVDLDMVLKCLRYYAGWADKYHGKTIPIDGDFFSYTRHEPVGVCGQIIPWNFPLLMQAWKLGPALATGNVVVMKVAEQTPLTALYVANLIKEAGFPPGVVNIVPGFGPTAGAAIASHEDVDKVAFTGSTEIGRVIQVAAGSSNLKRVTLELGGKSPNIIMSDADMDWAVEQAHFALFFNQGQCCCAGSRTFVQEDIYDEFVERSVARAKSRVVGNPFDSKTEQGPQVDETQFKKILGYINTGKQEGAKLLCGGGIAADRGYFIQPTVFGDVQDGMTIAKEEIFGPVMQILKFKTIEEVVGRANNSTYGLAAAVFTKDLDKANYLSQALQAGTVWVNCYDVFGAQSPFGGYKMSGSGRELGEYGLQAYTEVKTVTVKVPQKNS
Nature of the data set: Inhibition kinetics of ALDH-I, initial velocity method, formaldehyde as substrate. The note with it: from Ki values of Table II. The method, then:
The kinetic data were analyzed by standard graphical methods.

The test system of data set [2] is golden hamsters. The data set is described as follows: Effect of daidzin on free choice ethanol intake in golden hamsters. In kind it is in vivo, golden hamster. The note with it: 10 mg/day. An excerpt: Hamsters were chosen as described in Example 4 based on previous reports that they display high ethanol intake and preference in comparison with several other mammalian species, and that this was correlated with differences in ethanol metabolism. Kulkosky and Cornell, 1979, supra.
The animals used in these experiments are adult male golden hamsters (outbred, Lakeview Lak: LVG[SYR]), purchased from Charles River Laboratories, Wilmington, Mass. 01887. Upon arrival, hamsters are housed (4 per cage) with ad libitum access to food and tap water in a room maintained at 23° C. on a 12/12 light/dark cycle (light on 0600-1800 hr.) for 1 week. Following this acclimation period, each hamster is transferred to an individual stainless steel metabolic cage (26×18×17.5 cm) with a wire mesh floor for the remainder of the experiment. Each cage is equipped with a stainless steel food hopper located on the right side of the front wall which was kept filled with food. Two 50 ml drinking bottles fitted with stainless steel sipper tubes are placed on the left side of the front wall. Under the sipper tubes are funnels which collect and direct spillage to tubes placed outside of the cages. Fluids are provided mainly during the dark cycle (1800-0800 hr.) and fluid intake is measured in the morning at the same time each day, for example, at 0800 hr. During this baseline period, for example, 8 days, two drinking solutions are provided for each animal. One is tap water; the other is a 30% v/v solution of ethanol (100% USP). The position of the two drinking bottles on each cage is alternated daily to prevent the development of positional preference.
In other experiments, subcutaneous administration is preferably omitted, and each hamster receives only daily oral administration by feeding as described herein. […] This decline in alcohol intake was accompanied by a concomitant increase in water intake.

A short description of data set [3]: Plasma drug concentration versus time after a single 10 mg dose. In kind it is in vivo. The note with it: golden hamster. An excerpt:
Five hours later the plasma concentrations of both inhibitors were still above […], far above their competitive inhibition constants for ALDH-I.

Data set [4] relates to ADH isozymes. Nature of the data set: Inhibition of ADH. In kind it is biochemical, human.
For data set [5] the following is noted: high doses; cited from earlier work.
Data set [6] concerns rats. The note with it: subcutaneous in propylene glycol; cited from earlier work.
For data set [7], the system named is mice. The note with it: subcutaneous in propylene glycol; cited from earlier work.
Data set [8] in a line: physchem.
Data set [9] can be described thus: Solubility in water / aqueous media.
Data set [10] addresses T2, ALDH-II (Homo sapiens, UniProt P00352).
T2 sequence (P00352 1-501): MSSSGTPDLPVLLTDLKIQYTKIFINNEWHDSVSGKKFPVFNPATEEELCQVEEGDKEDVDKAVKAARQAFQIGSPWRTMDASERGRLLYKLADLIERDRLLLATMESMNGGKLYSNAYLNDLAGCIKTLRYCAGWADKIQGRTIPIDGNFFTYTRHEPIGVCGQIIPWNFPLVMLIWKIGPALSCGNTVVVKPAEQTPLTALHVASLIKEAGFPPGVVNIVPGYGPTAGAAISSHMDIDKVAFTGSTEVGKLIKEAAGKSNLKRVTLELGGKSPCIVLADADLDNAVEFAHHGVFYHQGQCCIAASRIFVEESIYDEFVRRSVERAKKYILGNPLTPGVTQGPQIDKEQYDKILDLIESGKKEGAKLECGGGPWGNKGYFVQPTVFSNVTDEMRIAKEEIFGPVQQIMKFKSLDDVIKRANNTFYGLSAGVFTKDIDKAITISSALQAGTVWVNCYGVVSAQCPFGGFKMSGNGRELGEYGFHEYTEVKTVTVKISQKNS
Nature of the data set: Inhibition kinetics of ALDH-II, initial velocity method, formaldehyde as substrate.
Procedure: The inhibition kinetics were studied by the initial velocity method (Dixon and Webb, 1979, Enzymes, 3rd ed., Longman, Great Britain). […] The initial reaction rates were measured in a pH 9.5 assay medium 0.1 11 in glycine-NaOH, 0. […] The enzyme reaction rates were followed by monitoring the production of NADH at 340 nm (ε-6.22 mM^-1 cm^-1) with a Varian Cary 219 spectrophotometer thermostated at 25° C. The kinetic data were analyzed by standard graphical methods.

In data set [11] the target is T1, ALDH-I. The data set is described as follows: Reversibility of ALDH-I inhibition (preincubation, then dilution). In kind it is biochemical. Further details: A liver sample (50 g wet weight) with the usual Caucasian ALDH phenotype (both ALDH-I and ALDH-II present); from tissue; host or cells: human liver (autopsy), purified by CM-52, AMP-agarose and DEAE HPLC.
Data set [12] has as its target T2, ALDH-II. Nature of the data set: Competitive inhibition of ALDH-II with acetaldehyde as substrate. In kind it is biochemical. Further details: A liver sample (50 g wet weight) with the usual Caucasian ALDH phenotype (both ALDH-I and ALDH-II present); from tissue; host or cells: human liver (autopsy), purified by CM-52, AMP-agarose and DEAE HPLC.

≈ marks a conversion by molar mass, not a printed value.

On to `O=c1c(-c2ccc(O)cc2)coc2cc(O[C@@H]3O[C@H](CO)[C@@H](O)[C@H](O)[C@H]3O)ccc12` [Daidzin, 7-glucoside of daidzein], for which the “more effective inhibition of human ALDH-I than of human ALDH-II” value in [1] is listed as 500 fold. The “effect apparent after the first dose, hamster Number 9” value in data set [2] was “fourth day after the first dose”. Also, in data set [2], the “start of decline of alcohol intake after the first dose, hamster Number 6” value came to 2 days. In addition, the “total fluid intake during daidzin administration” value in [2] (hamster Number 6) is “slightly decreased”. Besides, the “total water intake (water bottle plus water in ethanol mixture)” value in [2] (hamster Number 6) is “stayed nearly constant”. In addition, the “time to maximal plasma concentration after injection” value in data set [3] (i.p.) was “within about an hour after injection”. The Cmax in [3] (plasma, ip, read-out: maximal plasma concentration) stood at 6 µM. In data set [4], the ADH inhibition result was “inhibits the second but not the first step in human ethanol metabolism”. The estrogenic activity result in data set [5] is “estrogenic activity at high doses”. Also, the “antifebrile (hypothermic) effect” value in data set [6] is recorded as “no antifebrile (hypothermic) effect”. Besides, the spasmolytic effect result in data set [7] is reported as “no spasmolytic effect”. In addition, the solubility in data set [8] (10% aqueous polyvinylpyrrolidone 40, organic solvent or mixture) is roughly 2000 µM (≈ 833 µg/mL); in data set [8] (20% peg 400 in water, organic solvent or mixture) it was 4500 µM (≈ 1870 µg/mL); in [8] (20% peg/water, beta-cyclodextrin, organic solvent or mixture), 9400 µM (≈ 3910 µg/mL); in data set [8] (saturated digitonin solution), roughly 2000 µM (≈ 833 µg/mL); in [8] (water), 200 µM (≈ 83.3 µg/mL). For the same compound, the “solubility in polyethylene glycol 400” value in data set [9] (PEG 400) is “highly soluble”. Besides, the solubility in glycerol entry in [9] (glycerol) is “highly soluble”. In addition, the Ki worked out at 20 µM in data set [10] and 28 µM in data set [12]. In data set [11], the “reversibility of ALDH-I inhibition” value is given as “reversible”. Also, the inhibition at 0.001 µM in data set [11] (read-out: final inhibition after 100-fold dilution) is 2%. Moreover, the inhibition at 0.1 µM in [11] (read-out: inhibition after preincubation with daidzin) came to 70%.

By solubility is commonly meant the dissolved amount per volume that the medium holds. One may read the Ki as a measure of affinity in units of concentration, obtained from inhibition or displacement.
